Data as given in ChEMBL document CHEMBL1141049, “Synthesis and structure-activity relationship of N-alkyl Gly-boro-Pro inhibitors of DPP4, FAP, and DPP7” (Bioorg Med Chem Lett, 2005).

Experiments:
Dipeptidyl peptidase 2 [1] = molecular target: T1, Dipeptidyl peptidase 2 (Homo sapiens, UniProt Q9UHL4); experiment: Inhibitory activity against human DPP7 using Ala-Pro-AMC in fluorometric assay
Dipeptidyl peptidase 4 = Dipeptidyl peptidase 4 (Homo sapiens, UniProt P27487); experiment: Inhibitory activity against human DPP4 using Gly-Pro-AMC in fluorometric assay
Dipeptidyl peptidase 4, sequence (P27487 whole entry): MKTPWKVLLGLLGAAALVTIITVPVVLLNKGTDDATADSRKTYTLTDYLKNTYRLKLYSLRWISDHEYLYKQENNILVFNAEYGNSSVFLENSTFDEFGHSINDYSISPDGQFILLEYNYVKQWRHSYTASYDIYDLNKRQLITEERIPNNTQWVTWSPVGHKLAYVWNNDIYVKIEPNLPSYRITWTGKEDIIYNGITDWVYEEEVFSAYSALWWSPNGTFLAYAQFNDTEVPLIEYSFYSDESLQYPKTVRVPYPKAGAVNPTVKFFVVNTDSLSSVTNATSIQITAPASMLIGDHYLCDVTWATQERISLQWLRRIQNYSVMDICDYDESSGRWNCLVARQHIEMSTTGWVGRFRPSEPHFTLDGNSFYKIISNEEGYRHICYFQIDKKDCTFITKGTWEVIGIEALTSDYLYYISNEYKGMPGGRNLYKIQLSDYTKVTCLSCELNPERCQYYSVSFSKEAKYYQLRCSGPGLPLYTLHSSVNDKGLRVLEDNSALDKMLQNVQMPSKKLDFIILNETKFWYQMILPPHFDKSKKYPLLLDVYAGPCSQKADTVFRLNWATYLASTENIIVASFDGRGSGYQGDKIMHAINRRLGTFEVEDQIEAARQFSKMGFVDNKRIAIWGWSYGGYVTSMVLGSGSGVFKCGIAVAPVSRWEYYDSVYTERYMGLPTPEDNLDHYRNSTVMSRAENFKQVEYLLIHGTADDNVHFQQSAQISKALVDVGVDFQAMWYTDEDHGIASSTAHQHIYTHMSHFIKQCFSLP

Prolyl endopeptidase FAP = molecular target: T2, Prolyl endopeptidase FAP (Homo sapiens, UniProt Q12884); experiment: Inhibitory activity against human FAP using Lys-Pro-AMC in fluorimetric assay; No inhibition
T2 sequence (Q12884 whole entry): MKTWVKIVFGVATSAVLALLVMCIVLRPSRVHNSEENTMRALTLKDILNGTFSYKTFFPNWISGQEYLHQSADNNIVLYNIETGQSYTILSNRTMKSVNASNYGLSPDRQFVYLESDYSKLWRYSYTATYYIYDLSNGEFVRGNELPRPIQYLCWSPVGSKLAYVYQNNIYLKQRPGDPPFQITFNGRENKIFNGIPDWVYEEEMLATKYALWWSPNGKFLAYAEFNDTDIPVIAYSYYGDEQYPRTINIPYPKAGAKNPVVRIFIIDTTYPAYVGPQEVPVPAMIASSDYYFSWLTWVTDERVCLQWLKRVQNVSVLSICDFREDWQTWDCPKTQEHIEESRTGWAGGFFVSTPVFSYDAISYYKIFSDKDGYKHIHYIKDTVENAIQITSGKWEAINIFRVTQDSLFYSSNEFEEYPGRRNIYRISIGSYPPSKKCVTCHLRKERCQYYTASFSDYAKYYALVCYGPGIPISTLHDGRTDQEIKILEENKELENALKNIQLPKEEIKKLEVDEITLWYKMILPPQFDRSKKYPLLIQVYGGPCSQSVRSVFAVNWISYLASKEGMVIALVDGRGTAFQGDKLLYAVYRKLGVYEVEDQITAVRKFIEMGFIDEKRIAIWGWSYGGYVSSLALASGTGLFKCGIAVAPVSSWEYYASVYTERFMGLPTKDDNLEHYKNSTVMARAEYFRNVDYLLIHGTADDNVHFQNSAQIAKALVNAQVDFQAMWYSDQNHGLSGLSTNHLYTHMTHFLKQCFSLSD

Dipeptidyl peptidase 2 [2] = molecular target: T1, Dipeptidyl peptidase 2; experiment: Inhibitory activity against human DPP7 using Ala-Pro-AMC in fluorometric assay; No inhibition
[3] = molecular target: Prolyl endopeptidase FAP (Homo sapiens) (UniProt Q12884); experiment: Inhibition of human FAP using Lys-Pro-AMC in fluorometric assay at 33 uM

IC50 (Dipeptidyl peptidase 2 [1])	IC50 (Dipeptidyl peptidase 4)	inhibition [3]	Structure (SMILES)	IC50 (Prolyl endopeptidase FAP)	IC50 (Dipeptidyl peptidase 2 [2])
4.1 nM	27 nM	–	O=C(CNC1CCCCC1)N1CCC[C@H]1B(O)O	–	–
35 nM	560 nM	–	CC12CC3(C)CC(C)(C1)CC(NCC(=O)N1CCC[C@@H]1B(O)O)(C2)C3	–	–
4600 nM	1600 nM	–	CN(CC(=O)N1CCC[C@@H]1B(O)O)C1C2CC3CC(C2)CC1C3 (stereo partly specified)	–	–
2.2 nM	58 nM	–	O=C(CNC1CCCCCCCCC1)N1CCC[C@H]1B(O)O	–	–
140 nM	75 nM	–	O=C(CNC1CCC1)N1CCC[C@H]1B(O)O	–	–
15 nM	25 nM	–	O=C(CNC1CCCC1)N1CCC[C@H]1B(O)O	–	–
1 nM	61 nM	–	CCCCCC12CCC(NCC(=O)N3CCC[C@H]3B(O)O)(CC1)CC2	–	–
420 nM	8 nM	–	O=C(CNC12CC3CC(CC(C3)C1)C2)N1CCC[C@@H]1B(O)O	–	–
4 nM	27 nM	–	O=C(CNC1CCCCCCC1)N1CCC[C@H]1B(O)O	–	–
1.8 nM	7.8 nM	–	O=C(CNC1CCCCCC1)N1CCC[C@H]1B(O)O	–	–
6.3 nM	–	–	C[C@@H](N)C(=O)N1CCC[C@H]1B(O)O	–	–
8 nM	25 nM	–	O=C(CNC1CC2CCCC1C2)N1CCC[C@H]1B(O)O (stereo partly specified)	–	–
120 nM	12 nM	–	O=C(CNC1C2CC3CC(C2)CC1C3)N1CCC[C@@H]1B(O)O (stereo partly specified)	–	–
570 nM	130 nM	30%	O=C(CNC1CC1)N1CCC[C@H]1B(O)O	–	–

Structure (SMILES)	IC50 (Dipeptidyl peptidase 2 [1])	IC50 (Dipeptidyl peptidase 4)	inhibition [3]	IC50 (Prolyl endopeptidase FAP)	IC50 (Dipeptidyl peptidase 2 [2])
CC(C)[C@@H](NC1CCCCC1)C(=O)N1CCC[C@H]1B(O)O	–	16000 nM	–	Not Active	Not Active
